Results as given in patent US10800741B2 (ANCUREALL PHARMACEUTICAL (SHANGHAI) CO., LTD., priority 2017, dated 2020).
pIC50: −log10 of the molar value.

Assays:
KATO III (FGFR2 amp) = assay: In vitro growth inhibition of KATO III tumor cells (MTT/CCK8); type: cell-based, Human; settings: Homo sapiens, KATO III; in vitro growth inhibition (or induction of apoptosis), cells cultured 3 to 5 days, MTT (CCK8); read-out: IC50 KATO III (FGFR2 amp)
KCL-22 (BCR-ABL) = assay: In vitro growth inhibition of KCL-22 tumor cells (MTT/CCK8); type: cell-based, Human; settings: Homo sapiens, KCL-22; in vitro growth inhibition (or induction of apoptosis), cells cultured 3 to 5 days, MTT (CCK8); read-out: IC50 KCL-22 (BCR-ABL)
Karpas 299 (NPM-ALK) = assay: In vitro growth inhibition of Karpas 299 tumor cells (MTT/CCK8); type: cell-based, Human; settings: Homo sapiens, KARPAS-299; in vitro growth inhibition (or induction of apoptosis), cells cultured 3 to 5 days, MTT (CCK8); read-out: IC50 Karpas 299 (NPM-ALK)
Hep3B2 (FGFR3/4+++) = assay: In vitro growth inhibition of Hep3B2 tumor cells (MTT/CCK8); type: cell-based, Human; settings: Homo sapiens, Hep3B; in vitro growth inhibition (or induction of apoptosis), cells cultured 3 to 5 days, MTT (CCK8); read-out: IC50 Hep3B2 (FGFR3/4+++)
MOLM-13 (FLT3-ITD) = assay: In vitro growth inhibition of MOLM-13 tumor cells (MTT/CCK8); type: cell-based, Human; settings: Homo sapiens, MOLM-13; in vitro growth inhibition (or induction of apoptosis), cells cultured 3 to 5 days, MTT (CCK8); read-out: IC50 MOLM-13 (FLT3-ITD)
H1581 (FGFR1 amp) = assay: In vitro growth inhibition of H1581 tumor cells (MTT/CCK8); type: cell-based, Human; settings: Homo sapiens, NCI-H1581; in vitro growth inhibition (or induction of apoptosis), cells cultured 3 to 5 days, MTT (CCK8); read-out: IC50 H1581 (FGFR1 amp)
Kasumi-1 (KIT N822K) = assay: In vitro growth inhibition of Kasumi-1 tumor cells (MTT/CCK8); type: cell-based, Human; settings: Homo sapiens, Kasumi 1; in vitro growth inhibition (or induction of apoptosis), cells cultured 3 to 5 days, MTT (CCK8); read-out: IC50 Kasumi-1 (KIT N822K)
H1703 (PDGFRa amp) = assay: In vitro growth inhibition of H1703 tumor cells (MTT/CCK8); type: cell-based, Human; settings: Homo sapiens, NCI-H1703; in vitro growth inhibition (or induction of apoptosis), cells cultured 3 to 5 days, MTT (CCK8); read-out: IC50 H1703 (PDGFRa amp)
[1] = test system: human non-small cell lung cancer cell line NCI-H1299 (NRAS Q61K mutation); assay: Growth inhibition in combination with MEK1/2 inhibitor Trametinib, NCI-H1299 (NRAS Q61K mutation); type: cell-based; settings: 5 days
Procedure: (§1) Test Example 5 Synergistic Inhibition Effect of the Present Compounds in Combination with MEK1/2 Inhibitor on the Growth of RAS Mutant Tumor Cells In Vitro
(§2) The cell culture, drug treatment and MTT assay of human intestinal cancer cell line HCT116 (KRAS G13D mutation) and human non-small cell lung cancer cell line NCI-H1299 (NRAS Q61K mutation) were performed according to the method of test example 1. Cells were treated with the MEK1/2 inhibitor Trametinib at 25 nM, 2.5 nM and 0.25 nM alone or in combination with compound 66 or 125 of the present invention (5 days).

[2] = test system: human intestinal cancer cell line HCT116 (KRAS G13D mutation); assay: Growth inhibition in combination with MEK1/2 inhibitor Trametinib, HCT116 (KRAS G13D mutation); type: cell-based; settings: 5 days
Procedure: as §1, §2

[3] = compound 7.8 nM + Trametinib 0.25 nM
[4] = compound 7.8 nM + Trametinib 2.5 nM
[5] = compound 7.8 nM + Trametinib 25 nM
[6] = compound 15.6 nM + Trametinib 0.25 nM
[7] = compound 15.6 nM + Trametinib 2.5 nM
[8] = compound 15.6 nM + Trametinib 25 nM

Row | Compound | pIC50 (KATO III (FGFR2 amp)) | pIC50 (KCL-22 (BCR-ABL)) | pIC50 (Karpas 299 (NPM-ALK)) | pIC50 (Hep3B2 (FGFR3/4+++)) | pIC50 (MOLM-13 (FLT3-ITD)) | pIC50 (H1581 (FGFR1 amp)) | pIC50 (Kasumi-1 (KIT N822K)) | pIC50 (H1703 (PDGFRa amp)) | also measured
1 | COc1cc2nccc(Oc3ccc(NC(=O)Nc4cc(C(C)(C)C)nn4C)c(C)c3C)c2cc1C(N)=O [Compound 110, 4-{4-[3-(5-tert-butyl-2-methyl-2H-pyrazol-3-yl)-ureido]-2,3-dimethyl-phenoxy}-7-methoxy-quinolin-6-carboxamide] | 8.53 | 8.49 | 6.29 | 7.08 | 7.71 | 8.08 | 9.39 | 7.34 | –
2 | CC(C)(C)c1cc(NC(=O)Nc2ccc(Oc3ccnc4c(F)cccc34)cc2Cl)no1 [Compound 113, 1-(5-tert-butyl-isoxazol-3-yl)-3-[2-chloro-4-(8-fluoro-quinolin-4-yloxy)-phenyl]-urea] | 6.30 | < 6.00 | < 6.00 | < 6.00 | < 6.30 | < 6.00 | < 6.00 | 6.25 | –
3 | CC(C)(C)c1cc(NC(=O)Nc2ccc(Oc3ccnc4c(C(F)(F)F)cccc34)cc2Cl)no1 [Compound 114, 1-(5-tert-butyl-isoxazol-3-yl)-3-[2-chloro-4-(8-trifluoromethyl-quinolin-4-yloxy)-phenyl]-urea] | < 6.00 | < 5.30 | < 6.00 | < 6.00 | < 6.00 | < 6.00 | < 6.00 | < 6.00 | –
4 | CC(C)(C)c1cc(NC(=O)Nc2ccc(Oc3cc(C(F)(F)F)nc4ccccc34)cc2Cl)no1 [Compound 115, 1-(5-tert-butyl-isoxazol-3-yl)-3-[2-chloro-4-(2-trifluoromethyl-quinolin-4-yloxy)-phenyl]-urea] | 6.13 | < 5.30 | < 6.00 | < 6.00 | < 6.00 | < 6.00 | < 6.00 | < 6.00 | –
5 | COCCOc1cc2nccc(Oc3ccc(NC(=O)Nc4cc(C(C)(C)C)nn4C4CC4)c(Cl)c3)c2cc1NC(C)=O [Compound 125] | 9.64 | – | – | – | 8.92 | 8.97 | – | – | inhibition at 0.0078 µM ([1]; Homo sapiens, NCI-H1299, 120 h, compound 7.8 nM alone (solvent instead of Trametinib), read-out: cell growth inhibition (percentage)): 1.63%; inhibition at 0.0156 µM ([1]; Homo sapiens, NCI-H1299, 120 h, compound 15.6 nM alone (solvent instead of Trametinib), read-out: cell growth inhibition (percentage)): 6.5%; cell growth inhibition (percentage) [1, 3]: 9.27%; cell growth inhibition (percentage) [1, 4]: 24.38%; cell growth inhibition (percentage) [1, 5]: 46.25%; cell growth inhibition (percentage) [1, 6]: 19.92%; cell growth inhibition (percentage) [1, 7]: 34.72%; cell growth inhibition (percentage) [1, 8]: 58.26%; inhibition at 0.0078 µM ([2]; Homo sapiens, HCT-116, 120 h, compound 7.8 nM alone (solvent instead of Trametinib), read-out: cell growth inhibition (percentage)): 14.5%; inhibition at 0.0156 µM ([2]; Homo sapiens, HCT-116, 120 h, compound 15.6 nM alone (solvent instead of Trametinib), read-out: cell growth inhibition (percentage)): 19.9%; cell growth inhibition (percentage) [2, 3]: 62.54%; cell growth inhibition (percentage) [2, 4]: 76.01%; cell growth inhibition (percentage) [2, 5]: 82.04%; cell growth inhibition (percentage) [2, 6]: 71.98%; cell growth inhibition (percentage) [2, 7]: 79.72%; cell growth inhibition (percentage) [2, 8]: 82.82%
6 | CC(=O)Nc1cccc(-n2c(=O)n(C3CC3)c(=O)c3c(Nc4ccc(I)cc4F)n(C)c(=O)c(C)c32)c1 [Trametinib, reference compound] | – | – | – | – | – | – | – | – | inhibition at 0.00025 µM ([1]; Homo sapiens, NCI-H1299, 120 h, Trametinib 0.25 nM alone, read-out: cell growth inhibition (percentage)): 2.2%; inhibition at 0.0025 µM ([1]; Homo sapiens, NCI-H1299, 120 h, Trametinib 2.5 nM alone, read-out: cell growth inhibition (percentage)): 6.31%; inhibition at 0.025 µM ([1]; Homo sapiens, NCI-H1299, 120 h, Trametinib 25 nM alone, read-out: cell growth inhibition (percentage)): 15.5%; inhibition at 0.00025 µM ([2]; Homo sapiens, HCT-116, 120 h, Trametinib 0.25 nM alone, read-out: cell growth inhibition (percentage)): 12.1%; inhibition at 0.0025 µM ([2]; Homo sapiens, HCT-116, 120 h, Trametinib 2.5 nM alone, read-out: cell growth inhibition (percentage)): 27.7%; inhibition at 0.025 µM ([2]; Homo sapiens, HCT-116, 120 h, Trametinib 25 nM alone, read-out: cell growth inhibition (percentage)): 75.1%
